Literature values as cited in patent publication US6949260B2, “Method for treatment of inflammation and pain in mammals” (Metagenics, Inc., priority 2000, dated 2005).

Tests used:
[1] = system: thromboxane B2 production; conditions: in vitro
human platelet = conditions: induced by arachidonic acid, adrenaline and collagen

COc1cc(/C=C/C(=O)CC(=O)/C=C/c2ccc(O)c(OC)c2)ccc1O [Curcumin]
thromboxane B2 production from arachidonic acid [1]: inhibits thromboxane B2 production
inhibition of human platelet aggregation (human platelet): inhibit human platelet aggregation
